SMILES strings stand for the structures.

What all share (assay type): in vivo, human
Test [1] deals with subjects from trial 134004. Put plainly: DISF interview, long-term trial 134502 (continued or switched therapy). As to the method:
(§1) Sexual dysfunction and recovery were measured with the Derogatis Interview for Sexual Functioning (DISF/DISF-SR). This provides for a coordinated set of brief matched instruments designed to provide an estimate of the quality of an individual's current sexual functioning. The DISF is a semi-structured interview comprising 25 items and reflecting quality of sexual functioning in a multi-domain format. The DISF-SR is a matching Self-Report (SR) inventory designed to accomplish the same goal in a patient self-report mode. There are gender specific male and female versions of both the DISF and the DISF-SR. All instruments in the DISF series are designed to be interpreted at three distinct levels: Discrete Items, Functional Domains, and aggregate summary (Total Score). The Discrete Items are arranged into five primary Functional Domains of sexual functioning: (I) sexual cognition/fantasy, (II) sexual arousal, (III) sexual behavior/experience, (IV) orgasm, and (V) sexual drive/relationship. Both the DISF and the DISF-SR take approximately 12 to 15 minutes to administer. Internal consistency reliabilities for domain scores of the DISF-SR range from 0.70 to 0.77, while test-retest stability coefficients are 0.80 to 0.90 and 0.86 for the Total Score. Inter-rater reliability estimates for the DISF interview ranged from 0.84 to 0.92 for domain scores, and 0.91 for the Total. […] The DISF/DISF-SR is currently available in 10 foreign languages.
(§2) The Derogatis Interview was used, providing information on the quality of the subject's sexual functioning in quantitative terms. Only subjects who were willing to discuss their sexual functioning with the investigator were to be included. In addition, the scores from the interview, as well as demographic and medical history information, were to be used by the investigator to determine whether or not the subject reached the threshold of disorder (absent or present) for the primary criteria for the DSM-IV Sexual Disorders.
In another study (Organon's Internal reference number 134501), all subjects received gepirone ER (40 mg) after having completed a trial wherein subjects were randomized to receive either gepirone ER or placebo. DISF-SR data from the analysis of this long-term trial were analyzed. For females, data were available for 23 subjects who received gepirone in a previous trial (Organon internal reference: 134001 or 134002) previously (henceforth referred to as gepirone in this paragraph) and 23 subjects who received placebo previously (henceforth referred to as placebo in this paragraph). […] For males, data were available for 17 subjects who received gepirone and 17 subjects who received placebo. […] DISF Interview data from the analysis of another long-term trial (Organon internal reference: 134502) were analyzed. In this trial subjects from a previous trial (Organon internal reference:134004) were continued on therapy or were switched to a new drug, depending on antidepressant response.

The subject of test [2] is subjects with depression. Put plainly: DISF interview, short-term investigation in depression (134004). The following applies: trial 134004; for mean change from baseline in total score (DISF interview): short-term treatment. As to the method:
as §1, §2
DISF interview data from the analysis of another investigation of gepirone in depression (Organon internal reference number: 134004) were analyzed. […] Upon analysis of change from baseline in total score only for each domain for females and Domains I to III for males, similar conclusions for subjects who received gepirone and fluoxetine could be drawn.

Test [3] deals with subjects from trials 134001 or 134002. Put plainly: DISF-SR, long-term trial 134501 (all subjects on gepirone ER). The following applies: then gepirone ER 40 mg. The protocol:
as §1, §2
In another study (Organon's Internal reference number 134501), all subjects received gepirone ER (40 mg) after having completed a trial wherein subjects were randomized to receive either gepirone ER or placebo. DISF-SR data from the analysis of this long-term trial were analyzed. For females, data were available for 23 subjects who received gepirone in a previous trial (Organon internal reference: 134001 or 134002) previously (henceforth referred to as gepirone in this paragraph) and 23 subjects who received placebo previously (henceforth referred to as placebo in this paragraph). […] DISF Interview data from the analysis of another long-term trial (Organon internal reference: 134502) were analyzed. […]

Test [4] relates to subjects in remission from depression. Put plainly: DISF total score, longer-term trial 28709 (randomized after remission). The settings on record: for mean change from baseline in total score (DISF): gepirone HCl ER 40 mg, randomized after remission. As to the method: as §1
The Derogatis Interview was used, providing information on the quality of the subject's sexual functioning in quantitative terms. Only subjects who were willing to discuss their sexual functioning with the investigator were to be included. In addition, the scores from the interview, as well as demographic and medical history information, were to be used by the investigator to determine whether or not the subject reached the threshold of disorder (absent or present) for the primary criteria for the DSM-IV Sexual Disorders. […]

Test [5] deals with depressed patients. Put plainly: Specific case descriptions, long-term open-label study. The source says:
In another trial patients were enrolled in a long-term open-label study of depressed patients. […] It was observed that most of the reports were from patients in long-term therapy who had recovered from their depression weeks to months before making the reports. These reports provided incidental observations on both men and women of various ages that sexual desire had increased to a level not previously experienced by the subject and which was quite pleasing to them. It appeared that these patients were no longer depressed and now had the added benefit that sexual function, sexual relationships, and quality of life were improved beyond that experienced by patients merely recovering from depression. […] They were pursuing a dating life for the first time in years. […] They were not depressed anymore and the sexual effects continued to increase. […] They were successful and carried out a satisfying sexual relationship for the fist time since the death of their spouse. They were reported to be “giddy” over the effects of gepirone in this domain. Their quality of life was judged as much improved by the investigator.

Test [6] relates to depressed outpatients. Put plainly: DISF-SR, combined analysis of two short-term investigations (134001 and 134002). The following applies: short-term treatment (2 months), 134001 and 134002 combined. As to the method: Sexual dysfunction and recovery were measured with the Derogatis Interview for Sexual Functioning (DISF/DISF-SR). This provides for a coordinated set of brief matched instruments designed to provide an estimate of the quality of an individual's current sexual functioning. The DISF is a semi-structured interview comprising 25 items and reflecting quality of sexual functioning in a multi-domain format. The DISF-SR is a matching Self-Report (SR) inventory designed to accomplish the same goal in a patient self-report mode. There are gender specific male and female versions of both the DISF and the DISF-SR. All instruments in the DISF series are designed to be interpreted at three distinct levels: Discrete Items, Functional Domains, and aggregate summary (Total Score). The Discrete Items are arranged into five primary Functional Domains of sexual functioning: (I) sexual cognition/fantasy, (II) sexual arousal, (III) sexual behavior/experience, (IV) orgasm, and (V) sexual drive/relationship. Both the DISF and the DISF-SR take approximately 12 to 15 minutes to administer. […]
The Derogatis Interview was used, providing information on the quality of the subject's sexual functioning in quantitative terms. […]
DISF-SR data from the combined analysis of two investigations of gepirone in depressed outpatients (Organon internal reference: 134001 and 134002) were analyzed. […]

[7] abbreviates: males, same treatment throughout short-term (134004) and long-term (134502) trials.

In the case of `CNCCC(Oc1ccc(C(F)(F)F)cc1)c1ccccc1` (centres unmarked) [fluoxetine], the “mean change from baseline in total score (DISF interview)” value (“mean change … (DISF interview)” for short) in test [1] (females, switched from gepirone to fluoxetine, trial 134502) is “+0.9”; in test [1] (setting [7]) it was −1.2; in test [1] (males, switched from gepirone to fluoxetine, trial 134502), −5.8; in test [2] (females) it was −3.5; in test [2] (males) it was −4.4.

As for `CC1(C)CC(=O)N(CCCCN2CCN(c3ncccn3)CC2)C(=O)C1` [gepirone, 4,4-dimethyl-1-[4-[4-(2-pyrimidinyl)-1-piperazinyl]butyl]-2,6-piperidinedione], the “mean change from baseline in total score (DISF-SR)” value in test [3] (females, gepirone in previous trial) was “+11.2”; in test [3] (females, placebo in previous trial), “+3.3”; in test [3] (males, gepirone in previous trial), “+12.3”; in test [3] (males, placebo in previous trial), −4.4; in test [6] (females), “+8.0”; in test [6] (males), “+13.7”. In addition, the “mean change from baseline in total score (DISF)” value in test [4] (females) is recorded as “+5.2”; in test [4] (males) it was “+18.7”. In test [4] (males), the “Domains IV (orgasm) and V (sexual drive/relationship), total score from baseline” value is recorded as “improvement in total score from baseline”. Moreover, the “mean change … (DISF interview)” value in test [1] (females, same treatment throughout short-term (134004) and long-term (134502) trials) is listed as “+18.1”; in test [1] (females, switched from fluoxetine to gepirone, trial 134502) it was “+2.3”; in test [1] (females, switched from placebo to gepirone, trial 134502), “+4.2”; in test [1] (setting [7]), “+5.5”; in test [1] (males, switched from fluoxetine to gepirone, trial 134502), “+3.3”; in test [1] (males, switched from placebo to gepirone, trial 134502), “+7.1”. For the same molecule, the “mean change … (DISF interview)” value in test [2] (females) was “+4.3”; in test [2] (males), 0. The “quality of life judged by the investigator (case report)” value in test [5] (patient) is “much improved”. Also, the “orgasms (case report)” value in test [5] (person on open-label therapy, no longer depressed) is “more frequent and more intense”. In test [5] (person, on gepirone for nearly a year), the “libido (case report)” value is on record as “libido was up”. Moreover, in test [2] (males), the “change from baseline in total score for Domains IV (orgasm) and V (sexual drive/relationship)” value is recorded as “improvement in total score from baseline”.

For the origin of these results see patent publication US7538116B2, “Treatment of sexual disorders” (priority 2003, dated 2009).
